Source: the supplement of paper PMC10307832

Tests used:
Assay in all cases: relative viability (nuclei count vs DMSO), 5 days (fraction); higher = more cells survive
[1] = system: NCI-H2228; details: first compound 4 µM
Procedure, shortened: (§1)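 Medians of duplicate plates are given as relative viability. That measure is the nuclei count in treated wells divided by the count in vehicle wells. Counts were taken on 4× images of lung cancer cell lines in 1536-well plates, 5 days after pin-tool dosing the day after seeding with one drug alone or a fixed anchor-drug dose plus five library-drug doses (not always all listed) in √10 steps.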

[2] = system: LXF-289
Procedure, shortened: as §1

[3] = system: NCI-H522
Procedure, shortened: as §1

[4] = system: NCI-H1792
Procedure, shortened: as §1

[5] = system: LC-2-ad
Procedure, shortened: as §1

[6] = system: RERF-LC-KJ
Procedure, shortened: as §1

[7] = system: NCI-H1975
Procedure, shortened: as §1

[8] = system: PC-3 [JPC-3]
Procedure, shortened: as §1

[9] = system: NCI-H1915
Procedure, shortened: as §1

[10] = system: SK-LU-1
Procedure, shortened: as §1

[11] = system: NCI-H1734
Procedure, shortened: as §1

[12] = system: LOU-NH91
Procedure, shortened: as §1

[13] = system: HCC-78
Procedure, shortened: as §1

Clc1ccc(Nc2nnc(Cc3ccncc3)c3ccccc23)cc1 [Vatalanib] + Cc1nc(Nc2ncc(C(=O)Nc3c(C)cccc3Cl)s2)cc(N2CCN(CCO)CC2)n1 [Dasatinib] (partner 0.075 µM)
relative viability [1]: 0.447
relative viability ([2]; first compound 0.04 µM): 0.233
relative viability ([2]; first compound 0.1265 µM): 0.269
relative viability ([2]; first compound 0.4 µM): 0.336
relative viability ([2]; first compound 1.265 µM): 0.283
relative viability ([2]; first compound 4 µM): 0.204
relative viability ([3]; first compound 0.04 µM): 0.843
relative viability ([3]; first compound 0.1265 µM): 0.857
relative viability ([3]; first compound 0.4 µM): 0.912
relative viability ([3]; first compound 1.265 µM): 1.04
relative viability ([3]; first compound 4 µM): 0.828
relative viability ([4]; first compound 0.04 µM): 0.724
relative viability ([4]; first compound 0.1265 µM): 0.814
relative viability ([4]; first compound 0.4 µM): 0.758
relative viability ([4]; first compound 1.265 µM): 0.811
relative viability ([4]; first compound 4 µM): 0.759
relative viability ([5]; first compound 0.04 µM): 0.739
relative viability ([5]; first compound 0.1265 µM): 0.492
relative viability ([5]; first compound 1.265 µM): 0.507
relative viability ([5]; first compound 4 µM): 0.536
relative viability ([6]; first compound 0.04 µM): 0.851
relative viability ([6]; first compound 0.1265 µM): 0.828
relative viability ([6]; first compound 0.4 µM): 0.809
relative viability ([6]; first compound 1.265 µM): 0.623
relative viability ([6]; first compound 4 µM): 0.593
relative viability ([7]; first compound 0.04 µM): 0.356
relative viability ([7]; first compound 0.1265 µM): 0.344
relative viability ([7]; first compound 0.4 µM): 0.434
relative viability ([7]; first compound 1.265 µM): 0.282
relative viability ([7]; first compound 4 µM): 0.287
relative viability ([8]; first compound 0.04 µM): 0.949
relative viability ([8]; first compound 0.1265 µM): 0.982
relative viability ([8]; first compound 0.4 µM): 0.951
relative viability ([8]; first compound 1.265 µM): 0.913
relative viability ([8]; first compound 4 µM): 0.891
relative viability ([9]; first compound 0.04 µM): 0.322
relative viability ([9]; first compound 0.1265 µM): 0.321
relative viability ([9]; first compound 0.4 µM): 0.339
relative viability ([9]; first compound 1.265 µM): 0.279
relative viability ([9]; first compound 4 µM): 0.349
relative viability ([10]; first compound 0.04 µM): 0.182
relative viability ([10]; first compound 0.1265 µM): 0.188
relative viability ([10]; first compound 0.4 µM): 0.208
relative viability ([10]; first compound 1.265 µM): 0.184
relative viability ([10]; first compound 4 µM): 0.178
relative viability ([11]; first compound 0.04 µM): 0.512
relative viability ([11]; first compound 0.1265 µM): 0.432
relative viability ([11]; first compound 0.4 µM): 0.501
relative viability ([11]; first compound 1.265 µM): 0.47
relative viability ([11]; first compound 4 µM): 0.422
relative viability ([12]; first compound 0.04 µM): 0.563
relative viability ([12]; first compound 0.1265 µM): 0.534
relative viability ([12]; first compound 1.265 µM): 0.514
relative viability ([12]; first compound 4 µM): 0.509
relative viability ([13]; first compound 0.04 µM): 0.368
relative viability ([13]; first compound 0.1265 µM): 0.325
relative viability ([13]; first compound 0.4 µM): 0.333
relative viability ([13]; first compound 1.265 µM): 0.368
relative viability ([13]; first compound 4 µM): 0.383
